Several values for one entry are separate records, joined by “and”; a condition that tells them apart may be missing. Equal entries are not always repeated.
How the values were obtained:
Format in all cases: cell-based, human
[1] = tested on: CAL27; assay: alamarBlue cytotoxicity assay, CAL27
Procedure: (§1) To assess the cytotoxicity of the GLI inhibitor GANT61 (Sigma-Aldrich, St. Louis, MO, USA) in tumor and non-tumor cell lines, an alamarBlue assay (Sigma-Aldrich Chemical Co, St. Louis, MO, USA) was performed after 72 h of exposure to the inhibitor, as described by Ahmed et al., 1994 [46]. Cells were distributed on 96-well plates at a density of 7 × 10^4 cells/mL for adhered cells, and 3 × 10^5 cells/mL for cells in suspension. All tested compounds were dissolved in DMSO, added to wells containing 100 µL of cells in complete medium, and then incubated for 72 h. Eight concentrations of GANT61 (0.19 to 50 µg/mL), Doxorubicin (Laboratory IMA S.A.I.C., Buenos Aires, Argentina), and 5-Fluorouracil (5-FU, Sigma-Aldrich, St. Louis, MO, USA), both used as positive controls at concentrations ranging from 0.03 to 5 µg/mL, were added to respective wells. Cells treated with the vehicle (0.5% DMSO) used to dilute the tested compounds were used as negative controls. Before the end of the incubation period (4 h for cell lines and 24 h for PBMCs), 20 µL of alamarBlue stock solution (resazurin, Sigma-Aldrich, St. Louis, MO, USA) was added to each well. Absorbance was measured at 570 nm (reduced) and 595 nm (oxidized) wavelengths, using a Spectramax 190 plate reader (Molecular Devices; Sunnyvale, CA, USA).
(§2) Statistical analyses were performed, using GraphPad Prism v. 6.03 (GraphPad Software, Inc., San Diego, USA). Data were analyzed according to distribution along the normal Gaussian curve. IC50 values were obtained through non-linear regression, using results from three independent experiments carried out in duplicate. Differences between groups resulting from in vitro assays were evaluated by ANOVA (analysis of variance) testing, followed by the Student–Newman–Keuls test. This study considered a level of significance, corresponding to alpha (α) or “p” value, when results were less than or equal to 5%.

[2] = tested on: HSC3; assay: alamarBlue cytotoxicity assay, HSC3; details: 72 h of incubation
Procedure: For cytotoxicity assessments, this study primarily focused on the highly metastatic HSC3 OSCC cell line (JCRB Cell Bank, Osaka, Japan) and employed other histological tumor cell types and non-tumor cells (Supplementary Table S1). HSC3 cells were placed in flasks ([…], 250 mL volume) containing DMEM medium (Gibco, Lif Technologies, Gaithesburg, MD, USA) supplemented with 10% fetal bovine serum (FBS, Gibco, Life Technologies, Gaithesburg, MD, USA) 1% penicillin, 1% streptomycin (Gibco, Life Technologies, Gaithesburg, MD, USA), and 0.8% hydrocortisone (Sigma-Aldrich, St. Louis, MO, USA). Cells were cultured and kept in incubators, under an atmosphere of 5% CO2 at 37 °C. Trypsinization was used to dissociate cells when cell growth reached the necessary confluence, i.e., 70 to 80% of the total culture flask volume. Cell cultures were tested periodically for mycoplasma contamination and evaluated by using a luminometer, according to the MycoAlert^TM PLUS protocol (Lonza, Walkersville Inc., Walkersville, MD, USA, 2012).
as §1
(§3) Statistical analyses were performed, using GraphPad Prism v. 6.03 (GraphPad Software, Inc., San Diego, USA). Data were analyzed according to distribution along the normal Gaussian curve. […] Differences between groups resulting from in vitro assays were evaluated by ANOVA (analysis of variance) testing, followed by the Student–Newman–Keuls test. […]

[3] = tested on: HepG2; assay: alamarBlue cytotoxicity assay, HepG2; details: 72 h of incubation
Procedure: as §1, §2

[4] = tested on: HCT-116; assay: alamarBlue cytotoxicity assay, HCT-116; details: HCT-116, alamarBlue, 72 h of incubation
Procedure: as §1, §2

[5] = tested on: CAF 2; assay: alamarBlue cytotoxicity assay, cancer-associated fibroblasts CAF 2; details: CAF 2, alamarBlue, 72 h of incubation
Procedure: Two cancer-associated fibroblast populations (CAF1 and CAF2) were obtained as described by Sobral et al. (2011), from fragments of squamous cell carcinoma of the tongue that were removed from patients seen at the UNICAMP School of Dentistry in Piracicaba, São Paulo, Brazil.
Specimens were washed with PBS, fragmented, and placed in 25 cm^2 cell culture flasks containing 1 mL of DMEM medium supplemented with 10% FBS and an antibiotic, and then maintained in an incubator, at 37 °C, under 5% CO2. Cell growth was monitored daily, and the medium was replaced every 2–3 days. […] Type I collagen production as assessed by ELISA was also used as a marker of myofibroblast activity. Both CAF1 and CAF2 primary populations were maintained for a maximum of 12 passages, with CAF phenotype maintenance evaluated through immunocytochemical staining for the α-SMA antibody after each two passages. […]
To assess the cytotoxicity of the GLI inhibitor GANT61 (Sigma-Aldrich, St. Louis, MO, USA) in tumor and non-tumor cell lines, an alamarBlue assay (Sigma-Aldrich Chemical Co, St. Louis, MO, USA) was performed after 72 h of exposure to the inhibitor, as described by Ahmed et al., 1994 [46]. […] Absorbance was measured at 570 nm (reduced) and 595 nm (oxidized) wavelengths, using a Spectramax 190 plate reader (Molecular Devices; Sunnyvale, CA, USA). […]

[6] = tested on: PBMC; assay: alamarBlue cytotoxicity assay, PBMC; details: 72 h of incubation
Procedure: Human peripheral blood mononuclear cells (PBMC) lymphocytes and monocytes) were obtained from the peripheral blood of healthy, non-smoking volunteers aged 25–35 years. None of the volunteers had used any type of drug or medication for at least 15 days prior to collection. Blood collection (5 mL) was performed in heparinized vials by trained professionals at the Laboratory of Tissue Engineering and Immunopharmacology (LETI, IGM-FIOCRUZ, Salvador, Brazil), using sterile disposable syringes. PBMCs were isolated by a standard protocol described by Dias et al. (2018). The institutional review board of the Gonçalo Moniz Institution, Oswaldo Cruz Foundation (IGM-FIOCRUZ), in Salvador, Bahia, Brazil, approved all experimental protocols (No.031019/2013). All participants provided written informed consent prior to participation in the study.
To assess the cytotoxicity of the GLI inhibitor GANT61 (Sigma-Aldrich, St. Louis, MO, USA) in tumor and non-tumor cell lines, an alamarBlue assay (Sigma-Aldrich Chemical Co, St. Louis, MO, USA) was performed after 72 h of exposure to the inhibitor, as described by Ahmed et al., 1994 [46]. Cells were distributed on 96-well plates at a density of 7 × 10^4 cells/mL for adhered cells, and 3 × 10^5 cells/mL for cells in suspension. All tested compounds were dissolved in DMSO, added to wells containing 100 µL of cells in complete medium, and then incubated for 72 h. […] Absorbance was measured at 570 nm (reduced) and 595 nm (oxidized) wavelengths, using a Spectramax 190 plate reader (Molecular Devices; Sunnyvale, CA, USA).
as §3, with “6.03 (GraphPad Software, Inc., San Diego, USA).” left out

Row | SMILES | IC50 ([1]; Homo sapiens, CAL-27, 72 h of incubation) [µM] | IC50 [2] | IC50 ([2]; Homo sapiens, HSC-3, 72 h) [µM] | IC50 ([3]; Homo sapiens) [µM] | IC50 ([4]; Homo sapiens) [µM] | IC50 ([5]; Homo sapiens, Fibroblast) [µM] | IC50 ([6]; Homo sapiens) [µM] | IC50 ([1]; 72 h of incubation) [µM] | IC50 [3] [µM] | IC50 [4] [µM] | IC50 [5] [µM] | IC50 [6] [µM]
1 | O=c1[nH]cc(F)c(=O)[nH]1 [5-FU, 5-fluorouracil] | 30.8 | 16.8 µM | 17 | 1.3 | 4.07 | > 192 | > 192 | – | – | – | – | –
2 | CN(C)c1ccccc1CN1CCCN(Cc2ccccc2N(C)C)C1c1ccncc1 [GANT61] | – | 36 µM and 35.9 µM | – | – | – | – | – | > 116 | > 116 | > 116 | 71.5 | 87.5
